According to patent publication US12714688B2, “Margaric acid decreases PIEZ02-mediated pain” (The United States of America, as represented by The …, priority 2020, dated 2026):
“Also recorded” adds a separate entry of the source.

Key:
human PIEZO2 = human PIEZO2 (Homo sapiens, UniProt Q9H5I5); experiment: Whole-cell patch-clamp of N2A^Piezo1−/− cells transfected with human Piezo2; conditions: 300 μM; 18 h
[1] = tested on: human iPSC-derived neurons; experiment: Voltage-activated currents in human iPSC-derived neurons; format: cell-based; conditions: 300 μM vs control
Text: Human iPSC-derived neurons: For generating human peripheral sensory neuron cultures, a version of the healthy control WTC11 iPSC line was used. This line was previously engineered to harbor a doxycycline-inducible NGN2-BRN3A construct that enables rapid and efficient sensory neuron differentiation. Undifferentiated iPSCs were maintained in E8 flex medium (invitrogen) on polystyrene plates coated with Matrigel® (Corning). The medium was exchanged every 1-3 days, and the cells were passaged every 4-7 days with Accutase® (Invitrogen) and plated overnight with 10 μM of the ROCK-inhibitor Y-27632 (Tocris). For sensory neuron differentiation, iPSCs were seeded at 20,000 cells·(cm2)−1 in neural differentiation medium (NDM) on Matrigel®-coated plates. The cells were then re-plated after 48 hours at 50,000 cells·(cm^2)^−1 onto dishes coated with polyethylenimine (Sigma-Aldrich) and laminin (Invitrogen). NDM consisted of (all from Invitrogen) 1:1 DMEM/F12 and Neurobasal™ medium supplemented with N2, B27, and GlutaMAX™ at manufacturer-recommended dilution. 2 μg·ml^−1 doxycycline (Clontech) was included in the medium for the duration of the culture, 10 μM. Y-27632 was supplemented for the first 48 hours, and the following neurotrophic factors were added from day 8 onward at 10 ng/ml each (all from R&D systems): BDNF, GDNF, β-NGF, and NT-3. […]

[2] = molecular target: endogenous PIEZO2 currents in MCC13 (Homo sapiens, UniProt Q9H5I5); experiment: Whole-cell patch-clamp of mechanically stimulated MCC13 cells; conditions: 300 μM
Chain of endogenous PIEZO2 currents in MCC13 (Q9H5I5 whole entry): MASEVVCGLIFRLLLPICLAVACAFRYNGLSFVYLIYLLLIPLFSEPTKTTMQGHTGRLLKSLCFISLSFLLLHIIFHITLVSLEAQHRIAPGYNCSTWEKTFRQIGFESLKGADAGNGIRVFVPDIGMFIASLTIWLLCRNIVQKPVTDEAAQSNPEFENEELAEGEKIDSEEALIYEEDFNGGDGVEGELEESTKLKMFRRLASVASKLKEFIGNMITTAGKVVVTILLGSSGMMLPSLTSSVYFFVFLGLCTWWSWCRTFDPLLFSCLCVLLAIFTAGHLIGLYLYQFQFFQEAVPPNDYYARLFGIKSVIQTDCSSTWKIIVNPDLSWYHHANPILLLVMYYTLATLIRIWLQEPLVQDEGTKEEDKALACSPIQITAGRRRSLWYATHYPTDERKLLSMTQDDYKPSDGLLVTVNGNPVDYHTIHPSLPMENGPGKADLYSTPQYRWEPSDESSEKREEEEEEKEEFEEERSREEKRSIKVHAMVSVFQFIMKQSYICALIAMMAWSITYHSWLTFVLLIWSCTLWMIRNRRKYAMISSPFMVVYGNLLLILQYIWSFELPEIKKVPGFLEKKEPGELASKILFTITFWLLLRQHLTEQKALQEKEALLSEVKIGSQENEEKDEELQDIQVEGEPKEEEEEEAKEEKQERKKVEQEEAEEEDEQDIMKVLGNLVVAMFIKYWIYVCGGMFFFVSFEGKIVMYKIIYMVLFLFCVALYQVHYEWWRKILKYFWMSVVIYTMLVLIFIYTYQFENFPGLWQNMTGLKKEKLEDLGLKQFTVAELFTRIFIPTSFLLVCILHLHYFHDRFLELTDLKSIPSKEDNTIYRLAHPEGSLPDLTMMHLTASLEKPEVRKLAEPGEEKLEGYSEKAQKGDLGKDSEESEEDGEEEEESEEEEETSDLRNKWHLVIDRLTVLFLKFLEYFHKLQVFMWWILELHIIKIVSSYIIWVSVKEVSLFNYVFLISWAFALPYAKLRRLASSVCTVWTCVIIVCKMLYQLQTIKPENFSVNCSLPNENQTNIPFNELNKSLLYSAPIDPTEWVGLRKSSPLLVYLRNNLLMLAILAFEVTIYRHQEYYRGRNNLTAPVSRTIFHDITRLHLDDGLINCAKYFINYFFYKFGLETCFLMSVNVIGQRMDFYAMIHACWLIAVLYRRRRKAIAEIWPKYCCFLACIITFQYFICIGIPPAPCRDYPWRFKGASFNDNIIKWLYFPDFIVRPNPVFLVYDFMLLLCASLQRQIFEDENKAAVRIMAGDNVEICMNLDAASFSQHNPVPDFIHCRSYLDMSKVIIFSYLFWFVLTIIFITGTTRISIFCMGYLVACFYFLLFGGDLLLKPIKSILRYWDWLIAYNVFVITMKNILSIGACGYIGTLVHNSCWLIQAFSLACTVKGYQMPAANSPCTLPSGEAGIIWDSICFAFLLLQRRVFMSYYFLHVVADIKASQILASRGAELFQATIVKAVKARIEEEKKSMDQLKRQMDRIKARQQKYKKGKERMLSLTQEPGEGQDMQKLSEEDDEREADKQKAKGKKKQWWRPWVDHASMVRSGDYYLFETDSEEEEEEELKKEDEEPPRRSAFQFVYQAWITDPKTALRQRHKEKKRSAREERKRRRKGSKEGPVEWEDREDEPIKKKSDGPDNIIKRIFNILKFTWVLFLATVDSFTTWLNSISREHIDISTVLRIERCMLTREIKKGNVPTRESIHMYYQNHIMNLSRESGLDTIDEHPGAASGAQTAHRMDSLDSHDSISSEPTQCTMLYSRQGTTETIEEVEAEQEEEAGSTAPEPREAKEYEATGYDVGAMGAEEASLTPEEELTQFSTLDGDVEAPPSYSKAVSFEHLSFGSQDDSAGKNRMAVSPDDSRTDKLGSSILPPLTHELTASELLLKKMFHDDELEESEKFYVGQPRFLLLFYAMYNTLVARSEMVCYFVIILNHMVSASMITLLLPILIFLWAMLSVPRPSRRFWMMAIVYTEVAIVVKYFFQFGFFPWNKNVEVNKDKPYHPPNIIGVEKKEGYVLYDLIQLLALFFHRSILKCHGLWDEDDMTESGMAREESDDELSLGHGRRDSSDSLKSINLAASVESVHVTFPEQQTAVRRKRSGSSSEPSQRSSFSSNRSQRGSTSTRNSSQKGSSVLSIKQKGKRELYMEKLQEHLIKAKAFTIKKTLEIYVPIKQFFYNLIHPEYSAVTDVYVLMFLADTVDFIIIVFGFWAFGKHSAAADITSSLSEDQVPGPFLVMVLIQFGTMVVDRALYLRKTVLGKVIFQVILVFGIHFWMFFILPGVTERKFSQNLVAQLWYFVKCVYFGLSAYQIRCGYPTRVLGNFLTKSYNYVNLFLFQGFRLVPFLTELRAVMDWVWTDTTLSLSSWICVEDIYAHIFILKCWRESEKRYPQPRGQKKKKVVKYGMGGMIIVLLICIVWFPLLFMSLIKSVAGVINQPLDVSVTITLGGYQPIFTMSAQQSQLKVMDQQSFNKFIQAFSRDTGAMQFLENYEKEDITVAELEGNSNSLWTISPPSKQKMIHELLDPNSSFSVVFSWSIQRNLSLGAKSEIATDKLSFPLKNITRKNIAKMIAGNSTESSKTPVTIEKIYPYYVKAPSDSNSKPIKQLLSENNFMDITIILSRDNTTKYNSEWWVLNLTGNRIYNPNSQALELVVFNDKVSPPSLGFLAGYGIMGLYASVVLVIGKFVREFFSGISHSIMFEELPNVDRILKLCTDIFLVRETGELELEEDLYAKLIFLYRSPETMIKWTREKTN

[3] = tested on: mechano-activated currents of DRG neurons; experiment: Bradykinin sensitization of mechano-activated currents in mouse DRG neurons; format: cell-based
endogenous PIEZO2 = molecular target: T1, endogenous PIEZO2 (Homo sapiens, UniProt Q9H5I5); experiment: Whole-cell patch-clamp of mechanically activated currents in human iPSC-derived neurons; format: cell-based
T1 construct: endogenous in cells; host or cells: sensory neurons differentiated from human WTC11 iPSC line
T1 sequence (Q9H5I5 whole entry): as above
Text: Human iPSC-derived neurons: For generating human peripheral sensory neuron cultures, a version of the healthy control WTC11 iPSC line was used. This line was previously engineered to harbor a doxycycline-inducible NGN2-BRN3A construct that enables rapid and efficient sensory neuron differentiation. Undifferentiated iPSCs were maintained in E8 flex medium (invitrogen) on polystyrene plates coated with Matrigel® (Corning). The medium was exchanged every 1-3 days, and the cells were passaged every 4-7 days with Accutase® (Invitrogen) and plated overnight with 10 μM of the ROCK-inhibitor Y-27632 (Tocris). For sensory neuron differentiation, iPSCs were seeded at 20,000 cells·(cm2)−1 in neural differentiation medium (NDM) on Matrigel®-coated plates. The cells were then re-plated after 48 hours at 50,000 cells·(cm^2)^−1 onto dishes coated with polyethylenimine (Sigma-Aldrich) and laminin (Invitrogen). NDM consisted of (all from Invitrogen) 1:1 DMEM/F12 and Neurobasal™ medium supplemented with N2, B27, and GlutaMAX™ at manufacturer-recommended dilution. 2 μg·ml^−1 doxycycline (Clontech) was included in the medium for the duration of the culture, 10 μM.

[4] = tested on: mechano-activated currents of mouse DRG neurons; experiment: Whole-cell patch-clamp of mechano-activated currents in cultured mouse DRG neurons; conditions: 300 μM
mice = experiment: Hargreaves radiant heat test after daily hind paw injection; format: in vivo, mouse; conditions: MA 5 mM injected daily into hind paw for 7 days
Procedure: Mice behavior: MA solution: MA was prepared in sterile Dulbecco's phosphate buffered saline, with 70 g/L fatty acid free bovine serum albumin (BSA; Sigma), and MA to a final concentration of 5 mM. The solution was filtered to avoid undissolved materials.
Subjects: For the experiment 8-12 weeks old male and female C57B16/J mice (N=12; control n=6; male=3, female=3) MA (n=6; male=3, female=3) per experiment were used. Mice were housed under a 12 hr light dark cycle and granted access to food and water ad libitum.
Treatment: Animals were put in two groups (control and MA) and given injections in the plantar of the left hind paw for 7 days prior behavioral assessment. Injections were given as follows: Mouse is restrained by their tail, foot, and over shoulders scruff. The compound is delivered using a 3/10 cc insulin syringe into the plantar surface of the back foot of each mouse. The beveled needle is inserted at a 35-40° angle and 20-50 μl of the compound is injected subcutaneously. The needle is held in place for several seconds before being removed and the animal is returned to its home cage. […]
Thermal threshold (Hargreaves test): Animals were placed in small enclosures over a glass plate heated to 32° C. […] The latency for each rodent to withdraw the paw is recorded with three stimulus presentations administered per paw. […]

[5] = also human Piezo2 in N2A^Piezo1−/− cells (FIG. 14c-d)

Chain of human PIEZO2 (Q9H5I5 whole entry): as above

mechano-currents of human PIEZO2 (human PIEZO2): confirmed these results
effect on displacement threshold [2]: increasing the displacement threshold
effect on PIEZO2 currents (endogenous PIEZO2; 50 μM each day for 5 days): significantly decreased PIEZO2 currents
SMILES: CCCCCCCCCCCCCCCCC(=O)O [MA, heptadecanoic acid]
voltage-activated inward Na+ and outward K+ currents [1]: did not change voltage-activated inward Na+ and outward K+ currents
effect on mechano-activated (endogenous PIEZO2) currents [2]: decreases mechano-activated currents; also recorded: decreases endogenous PIEZO2 currents
current density after bradykinin administration ([3]; MA 300 μM 18 h, bradykinin 1 μM perfusion, 10 μm displacement, mean±SD, control 3.36±1.68): 3.64±1.96 pA/pF
mechano-currents after sensitization with bradykinin ([3]; MA 300 μM 18 h, acute bradykinin 1 μM): decreases the mechano-currents, even after sensitization with bradykinin
current densities after combined overnight incubation with bradykinin ([3]; bradykinin 1 μM and MA 300 μM, 18 h both): restored the current densities to those of control neurons
effect on endogenous PIEZO2 currents (endogenous PIEZO2; 300 and 600 μM overnight): significantly reduced endogenous PIEZO2 currents
mechanical threshold needed to activate the human channel (endogenous PIEZO2; [5]): increased the mechanical threshold needed to activate the human channel
time constant of inactivation (endogenous PIEZO2; [5]): without altering the time constant of inactivation
effect on displacement threshold [4]: increasing the displacement threshold
effect on mechano-evoked currents ([4]; rapidly, intermediate and slowly inactivating currents): inhibit all mechanosensitive currents; also recorded: decreases mechano-activated currents; also recorded: decreased the current magnitude of all DRG neurons mechano-evoked currents
thermal withdrawal latencies / hyper-responsiveness to heat (mice): did not affect the ability of mice to sense thermal stimuli; also recorded: has no effect on this hyper-responsiveness to heat; also recorded: had no effect on thermal withdrawal latencies
